Experiments:
ABUTH [1] = assay: Pre-emergence herbicidal action against ABUTH; format: in vivo, Abutilon theophrasti; conditions: for Pre-emergence action against ABUTH (herbicidal activity): 80 g/ha, scored visually after 3 weeks vs untreated controls (100% = plants have died, 0% = like control plants); for Pre-emergence action against ABUTH (herbicidal activity in percent): dosage 20 g/ha, scored visually after 3 weeks vs untreated controls, 100% = plants have died, 0% = like control plants
Outline: (§1)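 Seeds sown in sandy loam, soil-covered; compound sprayed on soil surface pre-emergence. Application: WP/EC, 600–800 l/ha, 0.2% wetting agent. Readout: visual % damage at 3 weeks.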

ALOMY [2] = assay: Pre-emergence herbicidal action against ALOMY; format: in vivo, Alopecurus myosuroides; conditions: 80 g/ha, pre-emergence, scored visually after 3 weeks vs untreated controls (100% = plants have died, 0% = like control plants)
Outline: as §1

AMARE [3] = assay: Pre-emergence herbicidal action against AMARE; format: in vivo, Amaranthus retroflexus
Outline: as §1

ECHCG [4] = assay: Pre-emergence herbicidal action against ECHCG; format: in vivo, Echinochloa crus-galli
Outline: as §1

MATIN = assay: Pre-emergence herbicidal action against MATIN; format: in vivo, Matricaria inodora
Outline: as §1

PHBPU [5] = assay: Pre-emergence herbicidal action against PHBPU; format: in vivo, Pharbitis purpurea; conditions: dosage 80 g/ha
Outline: as §1

SETVI [6] = assay: Pre-emergence herbicidal action against SETVI; format: in vivo, Setaria viridis
Outline: as §1

VIOTR [7] = assay: Pre-emergence herbicidal action against VIOTR; format: in vivo, Viola tricolor
Outline: as §1

DIGSA [8] = assay: Pre-emergence herbicidal action against DIGSA; format: in vivo, Digitaria sanguinalis
Outline: as §1

ABUTH [9] = assay: Post-emergence herbicidal action against ABUTH; format: in vivo, Abutilon theophrasti; conditions: visual assessment about 3 weeks after treatment vs untreated controls
Outline: (§2)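 Percent herbicidal action is rated by eye about 3 weeks after treatment against untreated controls, where 100% means dead plants and 0% means like controls. Plants in sandy loam are sprayed on green parts at the one-leaf stage with aqueous WP or EC preparations at 600 to 800 l/ha plus 0.2% wetting agent.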

ALOMY [10] = assay: Post-emergence herbicidal action against ALOMY; format: in vivo, Alopecurus myosuroides; conditions: dosage 20 g/ha, visual assessment about 3 weeks after treatment vs untreated controls
Outline: as §2

AMARE [11] = assay: Post-emergence herbicidal action against AMARE; format: in vivo, Amaranthus retroflexus; conditions: 20 g/ha, visual assessment about 3 weeks after treatment, 100% = plants have died, 0% = like control plants
Outline: as §2

ECHCG [12] = assay: Post-emergence herbicidal action against ECHCG; format: in vivo, Echinochloa crus-galli
Outline: as §2

PHBPU [13] = assay: Post-emergence herbicidal action against PHBPU; format: in vivo, Pharbitis purpurea
Outline: as §2

SETVI [14] = assay: Post-emergence herbicidal action against SETVI; format: in vivo, Setaria viridis; conditions: dosage 20 g/ha
Outline: as §2

VERPE [15] = assay: Post-emergence herbicidal action against VERPE; format: in vivo, Veronica persica; conditions: 20 g/ha
Outline: as §2

DIGSA [16] = assay: Post-emergence herbicidal action against DIGSA; format: in vivo, Digitaria sanguinalis; conditions: for Post-emergence action against DIGSA: 20 g/ha
Outline: as §2

AVEFA = assay: Pre-emergence herbicidal action against AVEFA; format: in vivo, Avena fatua; conditions: 80 g/ha, pre-emergence
Outline: as §1

VERPE [17] = assay: Pre-emergence herbicidal action against VERPE; format: in vivo, Veronica persica; conditions: dosage 80 g/ha
Outline: as §1

VIOTR [18] = assay: Post-emergence herbicidal action against VIOTR; format: in vivo, Viola tricolor; conditions: 20 g/ha
Outline: as §2

[19] = 20 g/ha, scored visually after 3 weeks vs untreated controls, 100% = plants have died, 0% = like control plants
[20] = 80 g/ha, scored visually after 3 weeks vs untreated controls (100% = plants have died, 0% = like control plants)

Compound	Pre-emergence action against ABUTH (herbicidal activity) (ABUTH [1])	Pre-emergence action against ALOMY (herbicidal activity) (ALOMY [2])	Pre-emergence action against AMARE in % (AMARE [3]; [19])	Pre-emergence action against AMARE in % (AMARE [3]; [20])	Pre-emergence action against ECHCG in % (ECHCG [4]; 80 g/ha)	Pre-emergence action against MATIN in % (MATIN; dosage 20 g/ha)	Pre-emergence action against MATIN in % (MATIN; dosage 80 g/ha)	Pre-emergence action against PHBPU in % (PHBPU [5])	Pre-emergence action against SETVI in % (SETVI [6]; dosage 80 g/ha)	Pre-emergence action against VIOTR in % (VIOTR [7]; dosage 80 g/ha)	Pre-emergence action against DIGSA in % (DIGSA [8]; dosage 20 g/ha)	Pre-emergence action against DIGSA in % (DIGSA [8]; dosage 80 g/ha)	Post-emergence action against ALOMY in % (ALOMY [10])	Post-emergence action at 20 g/ha against AMARE in % (AMARE [11])	Post-emergence action against ECHCG in % (ECHCG [12]; dosage 5 g/ha)	Post-emergence action against ECHCG in % (ECHCG [12]; dosage 20 g/ha)	Post-emergence action against PHBPU in % (PHBPU [13]; dosage 20 g/ha)	Post-emergence action against VERPE in % (VERPE [15])	Post-emergence action against DIGSA (DIGSA [16])	Pre-emergence action against ABUTH (herbicidal activity in percent) (ABUTH [1])	also measured
COCCNC(=O)c1c(C(F)F)ccc(C(=O)Nc2nnnn2C)c1Cl [Example 1-156]	100%	90%	100%	100%	100%	90%	100%	80%	100%	100%	100%	100%	80%	90%	80%	90%	90%	80%	90%		Post-emergence action against ABUTH in % (ABUTH [9]; dosage 5 g/ha): 90%; Post-emergence action against ABUTH in % (ABUTH [9]; dosage 20 g/ha): 90%; Post-emergence action against SETVI in % (SETVI [14]): 80%
Cn1nnnc1NC(=O)c1ccc(C(F)F)c(C(=O)NCC(F)F)c1Br [Example 1-230]	100%	90%	100%	100%	90%	90%	100%	90%	100%	100%	90%	100%	90%	100%	80%	80%		80%	90%	90%	Pre-emergence action against AVEFA in % (AVEFA): 90%; Pre-emergence action against SETVI in % (SETVI [6]; dosage 20 g/ha): 90%; Pre-emergence action against VERPE in % (VERPE [17]): 100%; Pre-emergence action against VIOTR in % (VIOTR [7]; dosage 20 g/ha): 100%
Cn1nnnc1NC(=O)c1ccc(C(F)F)c(C(=O)NCC2CC2)c1Br [Example 1-228]	100%	90%	100%	100%	100%	80%	100%	90%	100%	100%	100%	100%	90%	90%		80%	80%	90%	90%	100%	Pre-emergence action against AVEFA in % (AVEFA): 90%; Pre-emergence action against ECHCG in % (ECHCG [4]; 20 g/ha): 90%; Pre-emergence action against VERPE in % (VERPE [17]): 90%; Pre-emergence action against VIOTR in % (VIOTR [7]; dosage 20 g/ha): 90%; Post-emergence action against PHBPU in % (PHBPU [13]; dosage 5 g/ha): 80%; Post-emergence action against VIOTR in % (VIOTR [18]): 80%; Post-emergence action against DIGSA in % (DIGSA [16]; 5 g/ha): 90%

Source: US12655116B2, “Substituted isophthalic acid diamides” (Bayer Aktiengesellschaft, priority 2020, dated 2026)
